Assays:
PARP1 enzyme = PARP1 enzyme (Homo sapiens (Human), UniProt P09874); test: PARP Mass Spectroscopy Assay (PARP1 enzymatic assay, nicotinamide detection); type: biochemical; conditions: 5 nM PARP1, 5 uM β-NAD, 60 min at RT, NAM by mass spectrometry
Method in brief: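 Compounds were pre-incubated 30 min at RT with 5 nM PARP1 and core histones, then reacted 60 min at RT with 5 uM β-NAD and activated DNA in Tris pH 8.0 buffer with MgCl2, NaCl, Triton X-100 and DTT. The reaction was quenched with 3ABA, and nicotinamide was measured by mass spectrometry. IC50 came from a four-parameter fit of 10-point curves.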

[1] = target: human MDR1 (P-glycoprotein; P-gp) (Homo sapiens (Human), UniProt P08183); test: bi-directional MDCK-MDR1 permeability assay; type: in vitro ADME; conditions: MDCK-MDR1
Excerpt: The bi-directional assay containing a Mandin Darby canine kidney (MDCK) cell line transfected with human MDR1 gene (P-glycoprotein; P-gp) designed to overexpress the MDR1 efflux transporter, a major efflux transporter at the blood brain barrier (BBB), uses an established method that measures the rate of flux of a compound across polarized cell monolayers. As well appreciated in the art, the data generated from the MDCK-MDR1 permeability assay may be used to predict in vivo absorption of drugs. The bi-directional MDCK-MDR1 permeability assay can identify and quantify levels of active efflux. Screening compounds in both the apical to basolateral direction (A→B) and basolateral to apical direction (B→A) across the cell monolayer provides a ratio of B→A/A→B (efflux ratio; “ER”). Unlike the Caco-2 assay, the MDCK-MDR1 assay is not subject to potential efflux interference by breast cancer resistance protein (BCRP). […] The data may further be used to predict blood brain barrier (BBB) permeability via calculation from the data of log(permeability-surface area product) (“log PS”), well-understood to be predictive of the in vivo log([brain concentration]/[plasma concentration]).

[2] = in vivo unbound brain to plasma ratio (Kpuu) at steady state; conditions: rat, brain and plasma (unbound), continuous intravenous infusion over 24 hours, Sprague Dawley rats, free drug in brain vs plasma
Experimental: Compounds of the present technology are predicted to show BBB passage according to internal proprietary predictive models. These predictive models were further verified by in vivo experiments. In particular, in vivo unbound brain to plasma ratio (Kpuu) was measured at steady state by comparison of free drug concentrations (protein binding corrected) in brain and plasma after continuous intravenous infusion in Sprague Dawley rats over 24 hours, where a Kpuu of >0.3 represents good brain exposure of the compound.

tumors = conditions: literature statement; cited from earlier work

Chain of human MDR1 (P-glycoprotein; P-gp) (P08183 whole entry): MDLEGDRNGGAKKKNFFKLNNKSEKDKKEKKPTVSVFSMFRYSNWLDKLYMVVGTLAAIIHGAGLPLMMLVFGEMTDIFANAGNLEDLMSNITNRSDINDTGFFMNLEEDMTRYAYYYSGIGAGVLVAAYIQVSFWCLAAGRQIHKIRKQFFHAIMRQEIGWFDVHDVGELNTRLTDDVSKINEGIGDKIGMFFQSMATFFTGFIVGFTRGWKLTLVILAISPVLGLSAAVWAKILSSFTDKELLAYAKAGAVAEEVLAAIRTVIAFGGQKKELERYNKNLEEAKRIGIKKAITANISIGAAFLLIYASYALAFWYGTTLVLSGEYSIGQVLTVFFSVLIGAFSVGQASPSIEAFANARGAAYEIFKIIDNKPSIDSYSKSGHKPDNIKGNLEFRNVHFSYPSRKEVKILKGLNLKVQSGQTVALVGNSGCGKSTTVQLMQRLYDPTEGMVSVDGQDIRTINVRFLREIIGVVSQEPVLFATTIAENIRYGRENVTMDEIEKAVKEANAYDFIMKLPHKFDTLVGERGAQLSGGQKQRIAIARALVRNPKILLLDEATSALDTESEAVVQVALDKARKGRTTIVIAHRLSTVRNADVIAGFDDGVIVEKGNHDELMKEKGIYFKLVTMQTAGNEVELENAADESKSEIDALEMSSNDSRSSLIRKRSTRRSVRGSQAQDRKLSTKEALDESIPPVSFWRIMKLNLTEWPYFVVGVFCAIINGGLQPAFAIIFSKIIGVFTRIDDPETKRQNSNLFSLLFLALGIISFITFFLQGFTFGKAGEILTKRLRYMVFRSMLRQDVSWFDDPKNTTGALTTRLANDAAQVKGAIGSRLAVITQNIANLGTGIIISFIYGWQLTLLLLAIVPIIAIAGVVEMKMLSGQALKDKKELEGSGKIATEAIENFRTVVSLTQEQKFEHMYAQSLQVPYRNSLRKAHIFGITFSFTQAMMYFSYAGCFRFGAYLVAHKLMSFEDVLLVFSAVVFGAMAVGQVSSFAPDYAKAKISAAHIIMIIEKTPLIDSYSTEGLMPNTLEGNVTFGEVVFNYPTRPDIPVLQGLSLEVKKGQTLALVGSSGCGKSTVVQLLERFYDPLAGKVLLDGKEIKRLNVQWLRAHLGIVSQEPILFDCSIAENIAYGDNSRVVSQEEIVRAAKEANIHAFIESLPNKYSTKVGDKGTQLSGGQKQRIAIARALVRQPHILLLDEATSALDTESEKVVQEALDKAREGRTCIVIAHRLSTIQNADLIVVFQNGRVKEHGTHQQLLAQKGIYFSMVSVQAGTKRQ
Chain of PARP1 enzyme (P09874 whole entry): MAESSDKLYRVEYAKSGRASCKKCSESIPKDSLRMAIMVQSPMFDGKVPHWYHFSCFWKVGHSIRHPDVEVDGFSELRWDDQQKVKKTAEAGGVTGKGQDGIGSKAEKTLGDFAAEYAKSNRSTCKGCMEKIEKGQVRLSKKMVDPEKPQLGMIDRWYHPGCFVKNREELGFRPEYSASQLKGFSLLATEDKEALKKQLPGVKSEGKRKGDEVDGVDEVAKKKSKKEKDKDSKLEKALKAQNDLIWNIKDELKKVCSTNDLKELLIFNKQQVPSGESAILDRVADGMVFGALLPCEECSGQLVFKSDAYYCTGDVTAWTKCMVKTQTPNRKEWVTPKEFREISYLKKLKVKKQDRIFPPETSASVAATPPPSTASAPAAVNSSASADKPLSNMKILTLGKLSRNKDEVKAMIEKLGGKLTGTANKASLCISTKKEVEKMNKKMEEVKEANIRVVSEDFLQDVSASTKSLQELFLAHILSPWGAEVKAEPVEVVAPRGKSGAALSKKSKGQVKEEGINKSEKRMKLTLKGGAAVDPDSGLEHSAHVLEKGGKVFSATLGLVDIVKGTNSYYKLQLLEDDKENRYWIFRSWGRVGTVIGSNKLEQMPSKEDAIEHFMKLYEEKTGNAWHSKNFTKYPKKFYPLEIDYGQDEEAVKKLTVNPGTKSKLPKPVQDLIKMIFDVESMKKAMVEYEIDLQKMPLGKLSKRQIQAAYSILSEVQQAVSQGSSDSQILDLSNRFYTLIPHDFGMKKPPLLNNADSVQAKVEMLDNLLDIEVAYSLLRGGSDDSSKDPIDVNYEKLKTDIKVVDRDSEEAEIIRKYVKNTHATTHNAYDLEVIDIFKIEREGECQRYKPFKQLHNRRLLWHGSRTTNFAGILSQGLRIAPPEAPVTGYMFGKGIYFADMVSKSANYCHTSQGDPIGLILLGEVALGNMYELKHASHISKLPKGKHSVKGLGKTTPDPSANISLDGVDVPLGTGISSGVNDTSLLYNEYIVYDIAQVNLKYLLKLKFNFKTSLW

Row | IC50 (PARP1 enzyme) | Papp A→B ([1]; dog, apical to basolateral direction) | efflux ratio ([1]; human, efflux ratio B→A/A→B, read-out: MDCK-MDR1 ER) | Kp uu at 24 h [2] | Structure (SMILES) | efficacy in tumors (tumors)
1 | 8 nM | 13.8 ×10⁻⁶ cm/s | 0.654 | 0.591 | C[C@@H]1Nc2cc(F)cc3c(=O)[nH]nc(c23)[C@H]1c1ccc(F)cc1F [Compound 0174B, (8S,9S)-9-(2,4-difluorophenyl)-5-fluoro-8-methyl-2,7,8,9-tetrahydro-3H-pyrido[4,3,2-de]phthalazin-3-one] | –
2 | – | – | – | – | C[C@]1(c2nc3c(C(N)=O)cccc3[nH]2)CCCN1 [veliparib] | not efficacious in most tumors
